Results reported in patent US20240150369A1, “CYCLIN-DEPENDENT KINASE INHIBITING COMPOUNDS FOR THE TREATMENT OF MEDICAL DISORDERS” (G1 Therapeutics, Inc., priority 2020, published 2024).

Assays:
Format in all cases: biochemical
CDK3-CYCLIN-E = CDK3-CYCLIN-E (Homo sapiens (Human), UniProt Q00526); experiment: CDK3-Cyclin-E kinase assay (Nanosyn, Caliper microfluidic); settings: 12-point dose-response, singlicate, at Km for ATP
Experimental: (§1) Selected compounds disclosed herein were tested in kinase assays by Nanosyn (Santa Clara, CA) to determine their inhibitory effect on these CDKs. The assays were performed using microfluidic kinase detection technology (Caliper Assay Platform). The compounds were tested in 12-point dose-response format in singlicate at Km for ATP.

CDK2/Cyclin A = CDK2/Cyclin A (Homo sapiens (Human), UniProt P24941); experiment: CDK2/Cyclin A kinase assay (Nanosyn, Caliper microfluidic); settings: 12-point dose-response, singlicate, at Km for ATP; ATP 50 μM; 3 hr
Experimental: as §1, with “ATP. Specifics of each assay are as described below:” for “ATP.”
CDK2/Cyclin A: Enzyme concentration: 0.1 nM; ATP concentration: 50 μM; Incubation time: 3 hr.

CDK7 = CDK7 (Homo sapiens (Human), UniProt P50613); experiment: CDK7 kinase assay (Nanosyn, Caliper microfluidic); settings: 12-point dose-response, singlicate, at Km for ATP
CDK7, sequence (P50613 whole entry): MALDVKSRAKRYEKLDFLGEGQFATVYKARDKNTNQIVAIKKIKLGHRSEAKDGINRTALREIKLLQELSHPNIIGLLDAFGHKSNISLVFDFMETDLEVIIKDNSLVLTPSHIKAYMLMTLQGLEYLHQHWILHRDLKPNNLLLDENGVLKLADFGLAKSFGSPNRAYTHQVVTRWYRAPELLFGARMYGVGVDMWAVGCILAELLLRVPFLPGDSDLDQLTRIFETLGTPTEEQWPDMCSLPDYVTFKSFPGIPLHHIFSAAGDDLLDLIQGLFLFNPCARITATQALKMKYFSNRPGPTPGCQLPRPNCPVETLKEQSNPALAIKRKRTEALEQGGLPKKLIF
CDK7, sequence (P51946 whole entry partner): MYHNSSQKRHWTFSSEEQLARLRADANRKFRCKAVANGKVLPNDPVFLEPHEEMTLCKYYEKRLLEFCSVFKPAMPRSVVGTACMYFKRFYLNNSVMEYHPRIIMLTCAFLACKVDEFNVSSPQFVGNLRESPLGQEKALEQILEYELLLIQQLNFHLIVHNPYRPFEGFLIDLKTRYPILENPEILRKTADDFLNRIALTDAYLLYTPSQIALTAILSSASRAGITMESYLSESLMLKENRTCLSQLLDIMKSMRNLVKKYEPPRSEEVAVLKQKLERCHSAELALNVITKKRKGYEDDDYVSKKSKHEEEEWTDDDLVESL
CDK7, sequence (P51948 whole entry partner): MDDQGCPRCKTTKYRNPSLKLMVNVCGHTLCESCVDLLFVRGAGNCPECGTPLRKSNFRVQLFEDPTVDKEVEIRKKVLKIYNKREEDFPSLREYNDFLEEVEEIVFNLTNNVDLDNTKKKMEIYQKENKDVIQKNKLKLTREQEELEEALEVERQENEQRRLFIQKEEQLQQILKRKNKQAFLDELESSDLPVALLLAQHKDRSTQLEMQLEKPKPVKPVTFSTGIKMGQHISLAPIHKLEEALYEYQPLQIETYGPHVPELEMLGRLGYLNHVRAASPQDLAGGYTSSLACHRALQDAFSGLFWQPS
Experimental: as §1

CDK1/Cyclin B1 = CDK1/Cyclin B1 (Homo sapiens (Human), UniProt P06493); experiment: CDK1/Cyclin B1 kinase assay (Nanosyn, Caliper microfluidic); settings: 12-point dose-response, singlicate, at Km for ATP; ATP 40 μM; 3 hr
CDK1/Cyclin B1, sequence (P06493 whole entry): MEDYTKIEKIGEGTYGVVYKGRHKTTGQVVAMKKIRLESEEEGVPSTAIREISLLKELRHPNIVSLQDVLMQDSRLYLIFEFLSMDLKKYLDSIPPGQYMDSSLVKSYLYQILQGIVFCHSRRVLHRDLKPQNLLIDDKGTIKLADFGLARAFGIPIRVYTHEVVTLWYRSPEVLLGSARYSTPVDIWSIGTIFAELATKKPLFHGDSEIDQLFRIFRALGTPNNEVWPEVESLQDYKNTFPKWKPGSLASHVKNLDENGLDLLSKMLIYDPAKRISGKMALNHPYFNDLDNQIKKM
CDK1/Cyclin B1, sequence (P14635 whole entry partner): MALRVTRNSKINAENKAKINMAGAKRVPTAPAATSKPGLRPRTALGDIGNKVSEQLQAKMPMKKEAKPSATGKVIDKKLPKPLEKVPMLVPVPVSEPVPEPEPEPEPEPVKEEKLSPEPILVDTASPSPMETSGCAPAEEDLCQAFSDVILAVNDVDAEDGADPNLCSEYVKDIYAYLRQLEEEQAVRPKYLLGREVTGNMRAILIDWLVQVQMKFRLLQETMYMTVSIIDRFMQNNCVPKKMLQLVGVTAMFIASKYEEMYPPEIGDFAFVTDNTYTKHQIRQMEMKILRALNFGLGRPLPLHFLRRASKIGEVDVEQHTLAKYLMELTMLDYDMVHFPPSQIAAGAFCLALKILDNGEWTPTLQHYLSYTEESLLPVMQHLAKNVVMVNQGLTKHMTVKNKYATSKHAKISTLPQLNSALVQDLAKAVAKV
Experimental: as §1, with “ATP. Specifics of each assay are as described below:” for “ATP.”
CDK1/Cyclin B1: Enzyme concentration: 0.08 nM; ATP concentration: 40 μM; Incubation time: 3 hr.

CDK2/Cyclin E = CDK2/Cyclin E (Homo sapiens (Human), UniProt P24941); experiment: CDK2/Cyclin E kinase assay (Nanosyn, Caliper microfluidic); settings: 12-point dose-response, singlicate, at Km for ATP; ATP 100 μM; 3 hr
Experimental: as §1, with “ATP. Specifics of each assay are as described below:” for “ATP.”
CDK2/Cyclin E: Enzyme concentration: 0.15 nM; ATP concentration: 100 μM; Incubation time: 3 hr.

CDK4/Cyclin D1 = CDK4/Cyclin D1 (Homo sapiens (Human), UniProt P11802); experiment: CDK4/Cyclin D1 kinase assay (Nanosyn, Caliper microfluidic); settings: 12-point dose-response, singlicate, at Km for ATP; ATP 200 μM; 3 hr
CDK4/Cyclin D1, sequence (P11802 whole entry): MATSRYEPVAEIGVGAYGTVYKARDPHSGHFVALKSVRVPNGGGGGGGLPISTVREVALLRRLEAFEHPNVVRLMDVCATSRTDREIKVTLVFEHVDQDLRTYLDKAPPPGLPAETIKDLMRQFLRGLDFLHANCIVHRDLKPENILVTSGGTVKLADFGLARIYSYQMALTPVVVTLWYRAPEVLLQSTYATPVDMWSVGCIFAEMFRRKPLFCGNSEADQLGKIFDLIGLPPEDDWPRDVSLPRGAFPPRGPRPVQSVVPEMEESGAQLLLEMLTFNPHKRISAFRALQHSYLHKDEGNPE
CDK4/Cyclin D1, sequence (P24385 whole entry partner): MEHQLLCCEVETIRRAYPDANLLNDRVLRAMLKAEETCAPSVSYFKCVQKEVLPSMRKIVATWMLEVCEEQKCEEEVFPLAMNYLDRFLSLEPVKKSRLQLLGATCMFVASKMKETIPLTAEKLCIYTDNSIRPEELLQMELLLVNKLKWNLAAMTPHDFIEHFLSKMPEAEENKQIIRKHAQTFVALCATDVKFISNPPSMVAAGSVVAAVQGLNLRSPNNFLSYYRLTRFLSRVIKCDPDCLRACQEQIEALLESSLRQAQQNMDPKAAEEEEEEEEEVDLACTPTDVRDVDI
Experimental: as §1, with “ATP. Specifics of each assay are as described below:” for “ATP.”
CDK4/Cyclin D1: Enzyme concentration: 1 nM; ATP concentration: 200 μM; Incubation time: 3 hr.

CDK5-p25 = CDK5-p25 (Homo sapiens (Human), UniProt Q00535); experiment: CDK5-p25 kinase assay (Nanosyn, Caliper microfluidic); settings: 12-point dose-response, singlicate, at Km for ATP
CDK5-p25, sequence (Q00535 whole entry): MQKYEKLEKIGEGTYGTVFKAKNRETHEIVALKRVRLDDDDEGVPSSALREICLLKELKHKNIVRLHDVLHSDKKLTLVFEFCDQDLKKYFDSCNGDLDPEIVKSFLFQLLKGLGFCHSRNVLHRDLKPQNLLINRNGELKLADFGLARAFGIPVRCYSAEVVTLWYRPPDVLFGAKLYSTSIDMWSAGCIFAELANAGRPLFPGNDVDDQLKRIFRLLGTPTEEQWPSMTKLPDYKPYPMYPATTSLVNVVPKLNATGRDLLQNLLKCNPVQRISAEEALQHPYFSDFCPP
CDK5-p25, sequence (Q15078 99-307 partner): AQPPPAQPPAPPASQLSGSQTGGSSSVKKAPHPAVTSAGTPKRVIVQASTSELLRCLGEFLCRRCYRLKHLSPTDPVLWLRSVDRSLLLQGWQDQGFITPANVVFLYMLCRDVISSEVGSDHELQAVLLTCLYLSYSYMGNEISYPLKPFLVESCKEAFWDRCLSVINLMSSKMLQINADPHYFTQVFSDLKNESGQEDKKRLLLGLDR
Experimental: as §1

CDK9/Cyclin T1 = CDK9/Cyclin T1 (Homo sapiens (Human), UniProt P50750); experiment: CDK9/Cyclin T1 kinase assay (Nanosyn, Caliper microfluidic); settings: 12-point dose-response, singlicate, at Km for ATP; ATP 10 μM; 17 hr
CDK9/Cyclin T1, sequence (P50750 whole entry): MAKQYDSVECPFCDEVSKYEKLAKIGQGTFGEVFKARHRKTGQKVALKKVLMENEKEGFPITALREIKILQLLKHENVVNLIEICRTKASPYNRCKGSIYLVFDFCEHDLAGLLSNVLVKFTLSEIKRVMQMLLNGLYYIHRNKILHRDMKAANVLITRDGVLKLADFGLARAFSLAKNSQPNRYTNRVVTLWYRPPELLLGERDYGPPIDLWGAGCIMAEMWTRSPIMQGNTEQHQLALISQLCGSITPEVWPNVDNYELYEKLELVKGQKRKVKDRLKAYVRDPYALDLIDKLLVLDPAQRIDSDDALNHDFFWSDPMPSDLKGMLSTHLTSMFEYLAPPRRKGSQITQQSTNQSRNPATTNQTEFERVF
CDK9/Cyclin T1, sequence (O60563 whole entry partner): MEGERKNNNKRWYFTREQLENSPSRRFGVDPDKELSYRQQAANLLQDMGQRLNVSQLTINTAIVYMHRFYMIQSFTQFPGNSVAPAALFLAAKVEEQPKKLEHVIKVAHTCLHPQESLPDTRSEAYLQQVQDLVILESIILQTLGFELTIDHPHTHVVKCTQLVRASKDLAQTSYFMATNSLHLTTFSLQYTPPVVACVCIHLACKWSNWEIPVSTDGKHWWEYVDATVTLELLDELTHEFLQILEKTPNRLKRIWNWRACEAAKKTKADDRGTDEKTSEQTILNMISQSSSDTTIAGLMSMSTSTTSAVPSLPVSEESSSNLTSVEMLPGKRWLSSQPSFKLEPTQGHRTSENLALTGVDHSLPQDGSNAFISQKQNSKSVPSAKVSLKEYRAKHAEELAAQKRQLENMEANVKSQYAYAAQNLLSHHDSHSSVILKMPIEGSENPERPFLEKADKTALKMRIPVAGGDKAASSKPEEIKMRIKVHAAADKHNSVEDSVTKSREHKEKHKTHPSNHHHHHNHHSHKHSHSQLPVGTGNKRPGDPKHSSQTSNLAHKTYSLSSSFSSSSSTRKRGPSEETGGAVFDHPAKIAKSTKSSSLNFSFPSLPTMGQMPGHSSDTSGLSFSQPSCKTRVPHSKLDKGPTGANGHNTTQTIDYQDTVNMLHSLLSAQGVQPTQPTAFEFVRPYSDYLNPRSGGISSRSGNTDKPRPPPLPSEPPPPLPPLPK
Experimental: as §1, with “ATP. Specifics of each assay are as described below:” for “ATP.”
CDK9/Cyclin T1: Enzyme concentration: 5 nM; ATP concentration: 10 μM; Incubation time: 17 hr.

CDK6/Cyclin D3 = CDK6/Cyclin D3 (Homo sapiens (Human), UniProt Q00534); experiment: CDK6/Cyclin D3 kinase assay (Nanosyn, Caliper microfluidic); settings: 12-point dose-response, singlicate, at Km for ATP; ATP 300 μM; 3 hr
CDK6/Cyclin D3, sequence (Q00534 whole entry): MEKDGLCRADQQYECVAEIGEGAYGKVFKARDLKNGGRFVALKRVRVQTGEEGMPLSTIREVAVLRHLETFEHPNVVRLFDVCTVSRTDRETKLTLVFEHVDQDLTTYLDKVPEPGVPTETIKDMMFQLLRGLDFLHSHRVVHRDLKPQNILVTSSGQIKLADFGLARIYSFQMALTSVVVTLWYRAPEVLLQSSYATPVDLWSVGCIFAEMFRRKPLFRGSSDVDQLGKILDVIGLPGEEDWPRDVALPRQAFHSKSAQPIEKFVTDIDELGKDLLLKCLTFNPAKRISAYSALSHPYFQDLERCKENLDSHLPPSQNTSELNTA
CDK6/Cyclin D3, sequence (P30281 whole entry partner): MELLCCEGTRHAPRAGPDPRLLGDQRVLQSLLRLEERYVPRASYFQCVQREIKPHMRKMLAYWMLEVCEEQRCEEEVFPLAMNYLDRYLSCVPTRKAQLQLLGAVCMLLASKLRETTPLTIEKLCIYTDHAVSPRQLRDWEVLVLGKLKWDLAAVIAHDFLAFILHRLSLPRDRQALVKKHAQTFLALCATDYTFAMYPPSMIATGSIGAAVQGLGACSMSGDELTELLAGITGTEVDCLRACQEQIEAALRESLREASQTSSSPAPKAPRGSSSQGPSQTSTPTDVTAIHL
Experimental: as §1, with “ATP. Specifics of each assay are as described below:” for “ATP.”
CDK6/Cyclin D3: Enzyme concentration: 2 nM; ATP concentration: 300 μM; Incubation time: 3 hr.

SMILES | IC50 (CDK3-CYCLIN-E) [µM] | IC50 (CDK2/Cyclin A) [µM] | IC50 (CDK7) [µM] | IC50 (CDK1/Cyclin B1) [µM] | IC50 (CDK2/Cyclin E) [µM] | IC50 (CDK4/Cyclin D1) [µM] | IC50 (CDK5-p25) [µM] | IC50 (CDK9/Cyclin T1) [µM] | IC50 (CDK6/Cyclin D3) [µM]
NS(=O)(=O)c1ccc(Nc2ncc3cc4n(c3n2)C2(CCCCC2)C(=O)NC4O)cc1 (stereo not drawn) [Compound 1, 4-((6′-hydroxy-8′-oxo-7′,8′-dihydro-6′H-spiro[cyclohexane-1,9′-pyrazino[1′,2′:1,5]pyrrolo[2,3-d]pyrimidin]-2'-yl)amino)benzenesulfonamide] | 0.00094 | 0.00016 | 0.56 | 0.0022 | 0.00034 | 0.0031 | 0.0008 | 0.0014 | 0.0075
NS(=O)(=O)c1ccc(Nc2ncc3cc4n(c3n2)C2(CCCCC2)CC(=O)N4)cc1 [Compound 2, 4-((7′-oxo-7′,8′-dihydro-6′H-spiro[cyclohexane-1,9′-pyrrolo[1,5-a:2,3-d′]dipyrimidin]-2′-yl)amino)benzenesulfonamide] | 0.0028 | 0.0004 | 0.2 | 0.0037 | 0.0005 | 0.041 | 0.0013 | 0.0045 | 0.098
NS(=O)(=O)c1ccc(Nc2ncc3cc4n(c3n2)C2(CCCCC2)C(=O)NN4)cc1 [Compound 3, 4-((3′-oxo-2′,3′-dihydro-1′H-spiro[cyclohexane-1,4′-pyrimido[5′,4′:4,5]pyrrolo[2,1-c][1,2,4]triazin]-7′-yl)amino)benzenesulfonamide] | 0.0099 | 0.0025 | > 1 | 0.033 | 0.00056 | 0.13 | 0.014 | 0.062 | 0.35
CN1NC(=O)C2(CCCCC2)n2c1cc1cnc(Nc3ccc(S(N)(=O)=O)cc3)nc12 [Compound 12, 4-((1′-methyl-3′-oxo-2′,3′-dihydro-1′H-spiro[cyclohexane-1,4′-pyrimido[5′,4′:4,5]pyrrolo[2,1-c][1,2,4]triazin]-7′-yl)amino)benzenesulfonamide] | 0.059 | 0.0092 | > 1 | 0.088 | 0.013 | 0.028 | 0.14 | 0.18 | 0.16
NS(=O)(=O)c1ccc(Nc2ncc3cc4n(c3n2)C2(CCCCC2)C(=O)N[C@H]4CF)cc1 [Compound 18, (R)-4-((6′-(fluoromethyl)-8′-oxo-7′,8′-dihydro-6′H-spiro[cyclohexane-1,9′-pyrazino[1′,2′:1,5]pyrrolo[2,3-d]pyrimidin]-2′-yl)amino)benzenesulfonamide] | 0.018 | 0.0017 | 0.84 | 0.02 | 0.0027 | 0.033 | 0.017 | 0.01 | 0.15
C[C@@H]1NC(=O)C2(CCCCC2)n2c1cc1cnc(Nc3ccc(S(N)(=O)=O)cc3)nc12 [Compound 19, (S)-4-((6′-methyl-8′-oxo-7′,8′-dihydro-6′H-spiro[cyclohexane-1,9′-pyrazino[1′,2′:1,5]pyrrolo[2,3-d]pyrimidin]-2′-yl)amino)benzenesulfonamide] | 0.034 | 0.0043 | 0.8 | 0.04 | 0.0048 | 0.04 | 0.062 | 0.022 | 0.21
CN1CCN(C(=O)c2ccc(Nc3ncc4cc5n(c4n3)C3(CCCCC3)C(=O)NC5O)cc2)CC1 (stereo not drawn) [Compound 53, 6′-hydroxy-2′-((4-(4-methylpiperazine-1-carbonyl)phenyl)amino)-6′,7′-dihydro-8′H-spiro[cyclohexane-1,9′-pyrazino[1′,2′:1,5]pyrrolo[2,3-d]pyrimidin]-8′-one] | 0.01 | 0.002 | 0.615 | 0.027 | 0.004 | 0.002 | – | 0.01 | 0.005
CN1CCN(C(=O)c2ccc(Nc3ncc4cc5n(c4n3)C3(CCCCC3)CC(=O)N5)cc2)CC1 [Compound 54, 2′-((4-(4-methylpiperazine-1-carbonyl)phenyl)amino)-6′H-spiro[cyclohexane-1,9′-pyrrolo[1,5-a:2,3-d′]dipyrimidin]-7′(8′H)-one] | 0.008 | 0.002 | 0.144 | 0.012 | 0.001 | 0.003 | – | 0.007 | 0.007
O=C1NCC2(CCCCC2)n2c1cc1cnc(Nc3ccc(C(=O)N4CCNCC4)cc3)nc12 [Compound 55, 2′-((4-(piperazine-1-carbonyl)phenyl)amino)-7′,8′-dihydro-6′H-spiro[cyclohexane-1,9′-pyrazino[1′,2′:1,5]pyrrolo[2,3-d]pyrimidin]-6′-one] | 0.006 | 0.0006 | 0.027 | 0.005 | 0.001 | 0.0003 | – | 0.001 | 0.0004
CC1C(=O)Nc2cc3cnc(Nc4ccc(S(=O)(=O)N5CCN(C)CC5)cc4)nc3n2C12CCCCC2 (stereo not drawn) [Compound 59, 8′-methyl-2′-((4-((4-methylpiperazin-1-yl)sulfonyl)phenyl)amino)-6′H-spiro[cyclohexane-1,9′-pyrrolo[1,5-a:2,3-d′]dipyrimidin]-7′(8′H)-one] | 0.057 | 0.005 | 0.016 | 0.042 | 0.003 | 0.137 | – | 0.005 | 0.123
O=C(c1ccc(Nc2ncc3cc4n(c3n2)C2(CCCCC2)C(=O)NN4)cc1)N1CCNCC1 [Compound 61, 7′-((4-(piperazine-1-carbonyl)phenyl)amino)-1′,2′-dihydro-3′H-spiro[cyclohexane-1,4′-pyrimido[5′,4′:4,5]pyrrolo[2,1-c][1,2,4]triazin]-3′-one] | 0.058 | 0.017 | > 1 | 0.133 | 0.004 | 0.017 | – | 0.19 | 0.04
CN(C)C(=O)c1ccc(Nc2ncc3cc4n(c3n2)C2(CCCCC2)C(=O)NN4)cc1 [Compound 62, N,N-dimethyl-4-((3′-oxo-2′,3′-dihydro-1′H-spiro[cyclohexane-1,4′-pyrimido[5′,4′:4,5]pyrrolo[2,1-c][1,2,4]triazin]-7′-yl)amino)benzamide] | 0.187 | 0.061 | > 1 | 0.727 | 0.014 | 0.082 | – | 0.398 | 0.216
NC(=O)c1ccc(Nc2ncc3cc4n(c3n2)C2(CCCCC2)C(=O)NN4)cc1 [Compound 63, 4-((3′-oxo-2′,3′-dihydro-1′H-spiro[cyclohexane-1,4′-pyrimido[5′,4′:4,5]pyrrolo[2,1-c][1,2,4]triazin]-7′-yl)amino)benzamide] | 0.096 | 0.081 | 0.579 | 0.574 | 0.033 | 0.253 | – | 0.118 | 0.578
CNC(=O)c1ccc(Nc2ncc3cc4n(c3n2)C2(CCCCC2)C(=O)NN4)cc1 [Compound 64, N-methyl-4-((3′-oxo-2′,3′-dihydro-1′H-spiro[cyclohexane-1,4′-pyrimido[5′,4′:4,5]pyrrolo[2,1-c][1,2,4]triazin]-7′-yl)amino)benzamide] | 0.105 | 0.085 | > 1 | 0.505 | 0.023 | 0.132 | – | 0.085 | 0.417
O=C(c1ccc(Nc2ncc3cc4n(c3n2)C2(CCCCC2)C(=O)NN4)cc1)N1CCOCC1 [Compound 74, 7′-((4-(morpholine-4-carbonyl)phenyl)amino)-1′,2′-dihydro-3′H-spiro[cyclohexane-1,4′-pyrimido[5′,4′:4,5]pyrrolo[2,1-c][1,2,4]triazin]-3′-one] | 0.106 | 0.029 | > 1 | 0.258 | 0.008 | 0.06 | – | 0.653 | 0.137
